The values that follow come from PubChem BioAssay AID1259407 (Chemical Carcinogenesis Research Information System (CCRIS), 2018).

The test system of this series is CCRIS mutagenicity, Ames/micronucleus/aberration tests. The series can be described thus: CCRIS mutagenicity studies.
Setting [1] is: Test System: AMES SALMONELLA TYPHIMURIUM, Strain/Indicator: TA98, Metabolic Activation: NONE, Method: STANDARD PLATE.
The mark [2] stands for this setting: Test System: AMES SALMONELLA TYPHIMURIUM, Strain/Indicator: TA100, Metabolic Activation: NONE, Method: STANDARD PLATE.
Where [3] appears, read: Test System: AMES SALMONELLA TYPHIMURIUM, Strain/Indicator: TA1535, Metabolic Activation: NONE, Method: STANDARD PLATE.
[4] abbreviates: Test System: AMES SALMONELLA TYPHIMURIUM, Strain/Indicator: TA97, Metabolic Activation: NONE, Method: STANDARD PLATE.
[5] abbreviates: Test System: AMES SALMONELLA TYPHIMURIUM, Strain/Indicator: TA98, Metabolic Activation: RAT, LIVER, S-9, AROCLOR 1254, Method: STANDARD PLATE.
Where [6] appears, read: Test System: AMES SALMONELLA TYPHIMURIUM, Strain/Indicator: TA100, Metabolic Activation: RAT, LIVER, S-9, AROCLOR 1254, Method: STANDARD PLATE.
Setting [7] is: Test System: AMES SALMONELLA TYPHIMURIUM, Strain/Indicator: TA1535, Metabolic Activation: RAT, LIVER, S-9, AROCLOR 1254, Method: STANDARD PLATE.
Setting [8] is: Test System: AMES SALMONELLA TYPHIMURIUM, Strain/Indicator: TA1537, Metabolic Activation: RAT, LIVER, S-9, AROCLOR 1254, Method: STANDARD PLATE.

Active and inactive are the calls of the source. How the calls were made is not given here.

As for `CS(=O)(=O)OCCCCOS(C)(=O)=O`, the mutagenic call is, setting by setting: under setting [1], “inactive; negative”; (Test System: AMES SALMONELLA TYPHIMURIUM, Strain/Indicator: TA98, Metabolic Activation: S-9, Method: STANDARD PLATE) “inactive; negative”; under setting [2], “inactive; negative”; (Test System: AMES SALMONELLA TYPHIMURIUM, Strain/Indicator: TA100, Metabolic Activation: S-9, Method: STANDARD PLATE) “active; positive”; (Test System: AMES SALMONELLA TYPHIMURIUM, Strain/Indicator: TA1537, Metabolic Activation: S-9, Method: STANDARD PLATE) “inactive; negative”; (Test System: E. COLI, Strain/Indicator: WP2 (HCR), Metabolic Activation: NONE, Method: STANDARD PLATE) “inactive; negative”. The mutagenic call (Test System: E. COLI, Strain/Indicator: WP2 (HCR), Metabolic Activation: S-9, Method: STANDARD PLATE) was “active; positive”; the mutagenic call (Test System: MOUSE LYMPHOMA, Strain/Indicator: L5178Y (TK+/TK-), Metabolic Activation: NONE, Method: SUSPENSION/PLATE) is “active; positive”; the mutagenic call (Test System: MOUSE LYMPHOMA, Strain/Indicator: L5178Y (TK+/TK-), Metabolic Activation: RAT, LIVER, S-9, AROCLOR 1254, Method: SUSPENSION/PLATE) was “active; positive”.
For `c1ccc2c(c1)CC[C@@H]1CCC[C@@H]3O[C@]213`, the mutagenic call under setting [1] is “inactive; negative” and the mutagenic call under setting [2] is “inactive; negative”.
As to `O=[N+]([O-])c1ccc2c(c1)C(O)c1ccccc1-2` (centres undefined), the mutagenic call (Test System: AMES SALMONELLA TYPHIMURIUM, Strain/Indicator: TA98, Metabolic Activation: NONE, Method: PREINCUBATION) is “active; positive” and the mutagenic call (Test System: AMES SALMONELLA TYPHIMURIUM, Strain/Indicator: TA98, Metabolic Activation: S-9, Method: PREINCUBATION) is “active; positive”.
As to `COc1ccc2c(OC)c3ccoc3nc2c1`, the mutagenic call (Test System: AMES SALMONELLA TYPHIMURIUM, Strain/Indicator: TA98, Metabolic Activation: RAT, LIVER, S-9, PHENOBARBITAL, Method: STANDARD PLATE) was “active; positive” and the mutagenic call (Test System: AMES SALMONELLA TYPHIMURIUM, Strain/Indicator: TA100, Metabolic Activation: RAT, LIVER, S-9, PHENOBARBITAL, Method: STANDARD PLATE) is “active; positive”.
`CN(Cc1cccc(C(F)(F)F)c1)N=O`: the mutagenic call (Test System: AMES SALMONELLA TYPHIMURIUM, Strain/Indicator: TA1535, Metabolic Activation: HAMSTER, LIVER, S-9, AROCLOR 1254, Method: STANDARD PLATE) was “active; positive” and the mutagenic call under setting [3] was “inactive; negative”.
Turning to `CN(C)C(=S)SNCCNSC(=S)N(C)C`, the mutagenic call is “active; positive” under setting [2] and “inactive; negative” (Test System: AMES SALMONELLA TYPHIMURIUM, Strain/Indicator: TA100, Metabolic Activation: S-9 MIX, Method: STANDARD PLATE).
On to `COC(=O)COc1ccc(Cl)cc1Cl`, for which the mutagenic call under setting [4] is “inactive; negative”; the mutagenic call (Test System: AMES SALMONELLA TYPHIMURIUM, Strain/Indicator: TA97, Metabolic Activation: RAT, LIVER, S-9, AROCLOR 1254, Method: STANDARD PLATE) was “inactive; negative”; the mutagenic call under setting [1] was “inactive; negative”; the mutagenic call under setting [5] was “inactive; negative”; the mutagenic call under setting [2] is “inactive; negative”; the mutagenic call under setting [6] was “inactive; negative”. Further, the mutagenic call runs as follows: (Test System: AMES SALMONELLA TYPHIMURIUM, Strain/Indicator: TA102, Metabolic Activation: NONE, Method: STANDARD PLATE) “inactive; negative”; (Test System: AMES SALMONELLA TYPHIMURIUM, Strain/Indicator: TA102, Metabolic Activation: RAT, LIVER, S-9, AROCLOR 1254, Method: STANDARD PLATE) “inactive; negative”.
In the case of `c1cc2cccc3c4cccc5cccc(c(c1)c23)c54`, the mutagenic call is “inactive; negative” under setting [4]; “active; positive” (Test System: AMES SALMONELLA TYPHIMURIUM, Strain/Indicator: TA97, Metabolic Activation: RAT, LIVER, S-9, PCB, Method: STANDARD PLATE); “active; positive” (Test System: AMES SALMONELLA TYPHIMURIUM, Strain/Indicator: TA97A, Metabolic Activation: RAT, LIVER, S-9, AROCLOR 1254, Method: STANDARD PLATE); “inactive; negative” under setting [1]; “active; positive” (Test System: AMES SALMONELLA TYPHIMURIUM, Strain/Indicator: TA98, Metabolic Activation: RAT, LIVER, S-9, AROCLOR 1254 (20 OR 50 µL S-9), Method: STANDARD PLATE); “active; positive” (Test System: AMES SALMONELLA TYPHIMURIUM, Strain/Indicator: TA98, Metabolic Activation: RAT, LIVER, S-9, PCB, Method: STANDARD PLATE). Moreover, the mutagenic call by setting is: under setting [2], “inactive; negative”; (Test System: AMES SALMONELLA TYPHIMURIUM, Strain/Indicator: TA100, Metabolic Activation: RAT, LIVER, S-9, AROCLOR 1254 (50 µL S-9), Method: STANDARD PLATE) “active; positive”; under setting [6], “active; positive”; (Test System: AMES SALMONELLA TYPHIMURIUM, Strain/Indicator: TA100, Metabolic Activation: RAT, LIVER, S-9, PCB, Method: STANDARD PLATE) “active; positive”; under setting [7], “active; positive”; under setting [8], “active; positive”.
For `Nc1cc([N+](=O)[O-])c(N)cc1F`, the mutagenic call is “active; positive” under setting [1]; “active; positive” under setting [5]; “inactive; negative” under setting [2]; “active; positive” under setting [6]; “inactive; negative” under setting [3]; “inactive; negative” under setting [7]. The mutagenic call was “active; positive” (Test System: AMES SALMONELLA TYPHIMURIUM, Strain/Indicator: TA1537, Metabolic Activation: NONE, Method: STANDARD PLATE); “active; positive” under setting [8]; “active; positive” (Test System: AMES SALMONELLA TYPHIMURIUM, Strain/Indicator: TA1538, Metabolic Activation: NONE, Method: STANDARD PLATE); “active; positive” (Test System: AMES SALMONELLA TYPHIMURIUM, Strain/Indicator: TA1538, Metabolic Activation: RAT, LIVER, S-9, AROCLOR 1254, Method: STANDARD PLATE).
